By Ki is commonly meant the dissociation constant of the complex between target and ligand, obtained from inhibition or displacement. Read a high Ki as lower affinity.

Structures are written as SMILES.

Consider 7 molecules from ChEMBL document CHEMBL3132790 (Medchemcomm, 2013).

In assay [1] the target is Histamine H4 receptor (Homo sapiens, UniProt Q9H3N8). As to the kind of experiment: Displacement of [3H]histamine from wild type human histamine H4 receptor transfected in HEK293T cells after 1.5 hrs by liquid scintillation counting analysis. Type of assay: cell-based, HEK-293T. In general terms: In a radioligand displacement assay an active substance lowers the binding of a labelled ligand.

Assay [2] has as its target Histamine H4 receptor (Homo sapiens, UniProt Q9H3N8, E182Q). The assay is described as follows: Displacement of [3H]-JNJ 7777120 from human histamine H4 receptor E182'5.46Q mutant transfected in HEK293T cells after 1.5 hrs by liquid scintillation counting analysis.
Assay [3] deals with Histamine H4 receptor (Homo sapiens, UniProt Q9H3N8, L175V). The assay is described as follows: Displacement of [3H]histamine from human histamine H4 receptor L175'5.39V mutant transfected in HEK293T cells after 1.5 hrs by liquid scintillation counting analysis. Type of assay: cell-based, HEK-293T.
Chain of Histamine H4 receptor (Homo sapiens, UniProt Q9H3N8, L175V) (Q9H3N8 whole entry L175V): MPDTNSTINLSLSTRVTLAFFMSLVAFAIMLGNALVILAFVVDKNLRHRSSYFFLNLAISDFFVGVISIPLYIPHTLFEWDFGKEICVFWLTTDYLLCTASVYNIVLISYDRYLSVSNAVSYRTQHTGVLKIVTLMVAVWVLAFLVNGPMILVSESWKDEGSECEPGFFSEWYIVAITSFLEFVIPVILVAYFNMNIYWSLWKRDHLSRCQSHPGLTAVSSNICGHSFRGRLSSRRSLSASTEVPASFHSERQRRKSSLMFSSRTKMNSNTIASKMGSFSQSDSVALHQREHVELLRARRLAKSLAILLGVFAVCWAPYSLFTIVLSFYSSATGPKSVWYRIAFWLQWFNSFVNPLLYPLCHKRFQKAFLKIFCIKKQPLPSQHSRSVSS

Chain of Histamine H4 receptor (Homo sapiens, UniProt Q9H3N8) (Q9H3N8 whole entry): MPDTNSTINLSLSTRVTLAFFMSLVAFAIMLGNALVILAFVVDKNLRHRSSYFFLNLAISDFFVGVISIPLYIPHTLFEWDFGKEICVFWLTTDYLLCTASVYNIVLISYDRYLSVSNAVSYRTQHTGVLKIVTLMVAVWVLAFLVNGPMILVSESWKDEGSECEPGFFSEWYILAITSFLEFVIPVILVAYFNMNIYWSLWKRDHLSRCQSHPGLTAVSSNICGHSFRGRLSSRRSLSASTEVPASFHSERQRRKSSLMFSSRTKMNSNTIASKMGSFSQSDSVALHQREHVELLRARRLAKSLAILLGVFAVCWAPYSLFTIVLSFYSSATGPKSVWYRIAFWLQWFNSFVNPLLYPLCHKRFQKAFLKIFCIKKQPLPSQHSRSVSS
Chain of Histamine H4 receptor (Homo sapiens, UniProt Q9H3N8, E182Q) (Q9H3N8 whole entry E182Q): as the sequence (Q9H3N8 whole entry L175V) above, with V175L, E182Q counted along it

With `CN1CCN(c2cc(-c3ccc(Cl)cc3)nc(N)n2)CC1`, the results for the Ki at Histamine H4 receptor [1], on Histamine H4 receptor [2] and on Histamine H4 receptor [3] were 2 nM, 200 nM and 63.1 nM, respectively.

On to `CN1CCN(c2cc(-c3ccc(N)cc3)nc(N)n2)CC1`, for which the Ki on Histamine H4 receptor [1] is 5.01 nM.

At Histamine H4 receptor [1], `CN1CCN(c2cc(-c3ccc([N+](=O)[O-])cc3)nc(N)n2)CC1` had a Ki of 7.94 nM.

The molecule `COc1ccc2[nH]c(C(=O)N3CCN(C)CC3)cc2c1` showed a Ki on Histamine H4 receptor [1] of 5010 nM. Against the preceding molecule, the Ki is about 630-fold higher.

At Histamine H4 receptor [1], `CN1CCN(C(=O)c2cc3cc([N+](=O)[O-])ccc3[nH]2)CC1` showed a Ki of 100 nM.

On to `CN1CCN(c2cc(-c3ccccc3)nc(N)n2)CC1`, for which the Ki is 63.1 nM on Histamine H4 receptor [2] and 20 nM at Histamine H4 receptor [3].

Molecule `COc1ccc(-c2cc(N3CCN(C)CC3)nc(N)n2)cc1` had a Ki at Histamine H4 receptor [1] of 15.8 nM. In other words, the double-digit nanomolar range.
